Measurements from ChEMBL document CHEMBL3885881, “DrugMatrix”.

Species on record: Rattus norvegicus
Test: DrugMatrix - Regimen: Daily Repeat
Format: toxicity, organism-based, Sprague-Dawley
Design: regimen Daily Repeat, gender Male, age 6-8 weeks
Conditions: in vivo, po, route oral GAVAGE, vehicle 100 % WATER; for ABSOLUTE BASOPHIL / ABSOLUTE EOSINOPHIL / ABSOLUTE LYMPHOCYTE / ABSOLUTE MONOCYTE / ABSOLUTE SEGMENTED NEUTROPHIL / BASOPHIL / EOSINOPHIL / ERYTHROCYTE COUNT / HEMATOCRIT / HEMOGLOBIN / LEUKOCYTE COUNT / LYMPHOCYTE / MEAN CORPUSCULAR HEMOGLOBIN / MEAN CORPUSCULAR HEMOGLOBIN CONCENTRATION / MEAN CORPUSCULAR VOLUME / MONOCYTE / NEUTROPHIL / NUCLEATED RED BLOOD CELLS / PLATELET COUNT: tissue Blood; for ALANINE AMINOTRANSFERASE / ALBUMIN / ALKALINE PHOSPHATASE / ASPARTATE AMINOTRANSFERASE / BLOOD UREA NITROGEN / CARBON DIOXIDE / CHLORIDE / CHOLESTEROL / CREATINE PHOSPHOKINASE / CREATININE / GLUCOSE / LACTATE DEHYDROGENASE / LIPASE / PHOSPHORUS / POTASSIUM / SODIUM / TOTAL BILIRUBIN / TOTAL PROTEIN / URIC ACID: tissue Plasma
[1] = 0 mg/kg, 72 h, dose level Control, time 3 day
[2] = 0 mg/kg, 120 h, dose level Control, time 5 day
[3] = 1 mg/kg, 72 h, dose level Low, time 3 day

SMILES: CC[C@H](C)[C@H]1O[C@]2(C=C[C@@H]1C)C[C@@H]1C[C@@H](C/C=C(\C)[C@@H](O[C@H]3C[C@H](OC)[C@@H](O[C@H]4C[C@H](OC)[C@@H](O)[C@H](C)O4)[C@H](C)O3)[C@@H](C)/C=C/C=C3\CO[C@@H]4[C@H](O)C(C)=C[C@@H](C(=O)O1)[C@]34O)O2.CO[C@H]1C[C@H](O[C@H]2[C@H](C)O[C@@H](O[C@@H]3/C(C)=C/C[C@@H]4C[C@@H](C[C@]5(C=C[C@H](C)[C@@H](C(C)C)O5)O4)OC(=O)[C@@H]4C=C(C)[C@@H](O)[C@H]5OC/C(=C\C=C\[C@@H]3C)[C@]54O)C[C@@H]2OC)O[C@@H](C)[C@@H]1O [ABAMECTIN]
- ABSOLUTE BASOPHIL [1]: 0 CELLS/uL
- ABSOLUTE EOSINOPHIL [1]: 40 CELLS/uL
- ABSOLUTE LYMPHOCYTE [1]: 13599.5 CELLS/uL
- ABSOLUTE MONOCYTE [1]: 239.33 CELLS/uL
- ABSOLUTE SEGMENTED NEUTROPHIL [1]: 1021.17 CELLS/uL
- BASOPHIL [1]: 0%
- EOSINOPHIL [1]: 0.33%
- ERYTHROCYTE COUNT [1]: 5.71 x10E6/uL
- HEMATOCRIT [1]: 36.35%
- HEMOGLOBIN [1]: 14.05 G/DL
- LEUKOCYTE COUNT [1]: 14.9 x10E3/uL
- LYMPHOCYTE [1]: 91%
- MEAN CORPUSCULAR HEMOGLOBIN [1]: 24.62 pg
- MEAN CORPUSCULAR HEMOGLOBIN CONCENTRATION [1]: 38.65 G/DL
- MEAN CORPUSCULAR VOLUME [1]: 63.7 fL
- MONOCYTE [1]: 1.5%
- NEUTROPHIL [1]: 7.17%
- NUCLEATED RED BLOOD CELLS [1]: 0.33 /100WBC
- PLATELET COUNT [1]: 1225.5 x10E3/uL
- ALANINE AMINOTRANSFERASE [1]: 48.5 u/L
- ALBUMIN [1]: 4.18 G/DL
- ALKALINE PHOSPHATASE [1]: 390.83 u/L
- ASPARTATE AMINOTRANSFERASE [1]: 89 u/L
- BLOOD UREA NITROGEN [1]: 14.83 mg/dL
- CARBON DIOXIDE [1]: 24.83 mmol/L
- CHLORIDE [1]: 100.83 MEQ/L
- CHOLESTEROL [1]: 72.5 mg/dL
- CREATINE PHOSPHOKINASE [1]: 503 u/L
- CREATININE [1]: 0.2 mg/dL
- GLUCOSE [1]: 163 mg/dL
- LACTATE DEHYDROGENASE [1]: 316.83 u/L
- LIPASE [1]: 9.83 u/L
- PHOSPHORUS [1]: 11.57 mg/dL
- POTASSIUM [1]: 6.16 MEQ/L
- SODIUM [1]: 142.62 MEQ/L
- TOTAL BILIRUBIN [1]: 0.2 mg/dL
- TOTAL PROTEIN [1]: 5.8 G/DL
- URIC ACID [1]: 1.65 mg/dL
- ABSOLUTE BASOPHIL [2]: 0 CELLS/uL
- ABSOLUTE EOSINOPHIL [2]: 21 CELLS/uL
- ABSOLUTE LYMPHOCYTE [2]: 14288.5 CELLS/uL
- ABSOLUTE MONOCYTE [2]: 205.33 CELLS/uL
- ABSOLUTE SEGMENTED NEUTROPHIL [2]: 968.5 CELLS/uL
- BASOPHIL [2]: 0%
- EOSINOPHIL [2]: 0.17%
- ERYTHROCYTE COUNT [2]: 5.83 x10E6/uL
- HEMATOCRIT [2]: 36.53%
- HEMOGLOBIN [2]: 14.4 G/DL
- LEUKOCYTE COUNT [2]: 15.48 x10E3/uL
- LYMPHOCYTE [2]: 92%
- MEAN CORPUSCULAR HEMOGLOBIN [2]: 24.72 pg
- MEAN CORPUSCULAR HEMOGLOBIN CONCENTRATION [2]: 39.43 G/DL
- MEAN CORPUSCULAR VOLUME [2]: 62.68 fL
- MONOCYTE [2]: 1.33%
- NEUTROPHIL [2]: 6.5%
- NUCLEATED RED BLOOD CELLS [2]: 0.17 /100WBC
- PLATELET COUNT [2]: 1280.5 x10E3/uL
- ALANINE AMINOTRANSFERASE [2]: 50 u/L
- ALBUMIN [2]: 4.28 G/DL
- ALKALINE PHOSPHATASE [2]: 380.17 u/L
- ASPARTATE AMINOTRANSFERASE [2]: 82.67 u/L
- BLOOD UREA NITROGEN [2]: 15.33 mg/dL
- CARBON DIOXIDE [2]: 27.17 mmol/L
- CHLORIDE [2]: 100.33 MEQ/L
- CHOLESTEROL [2]: 60.67 mg/dL
- CREATINE PHOSPHOKINASE [2]: 441.5 u/L
- CREATININE [2]: 0.16 mg/dL
- GLUCOSE [2]: 146 mg/dL
- LACTATE DEHYDROGENASE [2]: 189.33 u/L
- LIPASE [2]: 9.17 u/L
- PHOSPHORUS [2]: 11.67 mg/dL
- POTASSIUM [2]: 6.86 MEQ/L
- SODIUM [2]: 142.33 MEQ/L
- TOTAL BILIRUBIN [2]: 0.2 mg/dL
- TOTAL PROTEIN [2]: 6.12 G/DL
- URIC ACID [2]: 1.82 mg/dL
- ABSOLUTE BASOPHIL [3]: 0 CELLS/uL
- ABSOLUTE EOSINOPHIL [3]: 0 CELLS/uL
- ABSOLUTE LYMPHOCYTE [3]: 13707 CELLS/uL
- ABSOLUTE MONOCYTE [3]: 388 CELLS/uL
- ABSOLUTE SEGMENTED NEUTROPHIL [3]: 1005 CELLS/uL
- BASOPHIL [3]: 0%
- EOSINOPHIL [3]: 0%
- ERYTHROCYTE COUNT [3]: 5.4 x10E6/uL
- HEMATOCRIT [3]: 34.53%
- HEMOGLOBIN [3]: 13.23 G/DL
- LEUKOCYTE COUNT [3]: 15.1 x10E3/uL
- LYMPHOCYTE [3]: 91%
- MEAN CORPUSCULAR HEMOGLOBIN [3]: 24.47 pg
- MEAN CORPUSCULAR HEMOGLOBIN CONCENTRATION [3]: 38.3 G/DL
- MEAN CORPUSCULAR VOLUME [3]: 63.93 fL
- MONOCYTE [3]: 2.67%
- NEUTROPHIL [3]: 6.33%
- NUCLEATED RED BLOOD CELLS [3]: 0 /100WBC
- PLATELET COUNT [3]: 1310 x10E3/uL
- ALANINE AMINOTRANSFERASE [3]: 54 u/L
- ALBUMIN [3]: 4.17 G/DL
- ALKALINE PHOSPHATASE [3]: 413 u/L
- ASPARTATE AMINOTRANSFERASE [3]: 81.33 u/L
- BLOOD UREA NITROGEN [3]: 14.33 mg/dL
- CARBON DIOXIDE [3]: 26.67 mmol/L
- CHLORIDE [3]: 100.33 MEQ/L
- CHOLESTEROL [3]: 79.67 mg/dL
- CREATINE PHOSPHOKINASE [3]: 332.67 u/L
- CREATININE [3]: 0.19 mg/dL
- GLUCOSE [3]: 158 mg/dL
- LACTATE DEHYDROGENASE [3]: 294.67 u/L
- LIPASE [3]: 9 u/L
- PHOSPHORUS [3]: 11.97 mg/dL
- POTASSIUM [3]: 6.52 MEQ/L
- SODIUM [3]: 142.57 MEQ/L
- TOTAL BILIRUBIN [3]: 0.23 mg/dL
- TOTAL PROTEIN [3]: 5.73 G/DL
- URIC ACID [3]: 1.57 mg/dL
